System: adult patients diagnosed with MDD
Test: Eight-week randomized, double-blind, placebo-controlled study: association of sequenced gene markers (Tables 1-17) with vilazodone response as change of MADRS
Type: in vivo, human
Settings: mean MADRS decrease
Text: There was a wide range of inter-individual variability in response to vilazodone as well as to placebo and the active comparators. This variability may be partially due to genetic differences among the individuals treated. This example illustrates a randomized, double-blind, placebo-controlled, multicenter, eight-week study designed to discover genetic markers of response to vilazodone in adult patients diagnosed with MDD by the DSM-IV-TR criteria. Patients must have met all of the following inclusion criteria to be considered for enrollment in the study: (1) 18-65 years of age; (2) diagnosis of MDD, single episode or recurrent, according to DSM-IV-TR (296.2/296.3) with a current Major Depressive Episode of less than one year's duration with a minimum duration of at least 4 weeks; (3) HAM-D score≧22 on the first 17 items of the 21-item HAM-D at screening and baseline visits; (4) HAM-D item 1 (depressed mood) score≧2 at the screening visit and the baseline visit; (5) provision of written informed consent to participate; and (6) ability to speak, read and understand English and to respond to questions and follow simple instructions.
Following randomization into vilazodone and placebo groups, patients began the forced titration schedule. Patients received 10 mg qd until Visit 3 (approximately Day 7). At Visit 3 patients received 20 mg qd until Visit 4 (approximately Day 14). At Visit 4 patients received the target dose of 40 mg qd (approximately Day 15). A total of 152 patients completed the vilazodone arm, while 154 patients completed the placebo arm.
This example illustrates genotyping of the study group for the ACE, ATP5C3, BCL2L1, CYP2C9, DRD3, FOS, DTNBP1, GABRG3, GRIA4, LAMA4, MAPK1, NPY1R, OPRD1, OPRM1, PER3, PLCB1, and PSMD1 polymorphic sites selected by the inventors herein for analysis. Genomic DNA was isolated from blood obtained from each individual and amplified target regions containing the polymorphic sites in Tables A-21 to A-37 (Appendix A) were sequenced to determine the genotypes at these polymorphic sites. Tailed (Universal M13 Forward and Reverse) PCR primers were designed using the sequence of SEQ ID NO:1 for ACE, SEQ ID NO:2 for ATP5C3, SEQ ID NO:3 for BCL2L1, SEQ ID NO:4 for CYP2C9, SEQ ID NO:5 for DRD3, SEQ ID NO:6 for FOS, SEQ ID NO:7 for DTNBP1, SEQ ID NO:8 for GABRG3, SEQ ID NO:9 for GRIA4, SEQ ID NO:10 for LAMA4, SEQ ID NO:11 for MAPK1, SEQ ID NO:12 for NPY1R, SEQ ID NO:13 for OPRD1, SEQ ID NO:14 for OPRM1, SEQ ID NO:15 for PER3, SEQ ID NO:16 for PLCB1, and SEQ ID NO:17 for PSMD1. Amplified PCR products were sequenced using Applied Biosystems' Big Dye® Terminator v 3.1 cycle sequencing kit according to manufacturer's instructions. The reaction products were then electrophoresed using an Applied Biosystems 3700 or 3730xl DNA analyzer. Polymorphisms were identified using the Polyphred program, and confirmed by visual inspection.
Haplotypes were estimated from the unphased genotypes using a computer-implemented algorithm for assigning haplotypes to unrelated individuals in a population sample, essentially as described in WO 01/80156. In this method, haplotypes are assigned directly from individuals who are homozygous at all sites or heterozygous at no more than one of the variable sites. This list of haplotypes is then used to deconvolute the unphased genotypes in the remaining (multiply heterozygous) individuals.
This example illustrates analysis of the markers in Tables A-1 to A-17 (Appendix A) for association with vilazodone response. A proprietary algorithm was used as a tool for finding associations between markers and outcomes. The clinical outcomes were improvement in disease over eight weeks of treatment with vilazodone as measured by the MADRS scale. A linear model was first fitted on the covariates, which were treatment center, race, ethnicity, and baseline values. […]

[1] = PLCB1 marker 54, carriers vs non-carriers
[2] = PLCB1 marker 55, carriers vs non-carriers
[3] = PLCB1 marker 56, carriers vs non-carriers
[4] = PLCB1 marker 57, carriers vs non-carriers
[5] = PLCB1 marker 58, carriers vs non-carriers
[6] = PLCB1 marker 59, carriers vs non-carriers
[7] = PLCB1 marker 60, carriers vs non-carriers
[8] = PLCB1 marker 61, carriers vs non-carriers
[9] = PLCB1 marker 62, carriers vs non-carriers
[10] = PLCB1 marker 63, carriers vs non-carriers
[11] = PLCB1 marker 64, carriers vs non-carriers
[12] = PLCB1 marker 65, carriers vs non-carriers
[13] = PLCB1 marker 66, carriers vs non-carriers
[14] = PLCB1 marker 67, carriers vs non-carriers
[15] = PLCB1 marker 68, carriers vs non-carriers
[16] = PLCB1 marker 96, carriers vs non-carriers
[17] = PLCB1 marker 97, carriers vs non-carriers
[18] = PLCB1 marker 98, carriers vs non-carriers
[19] = PLCB1 marker 99, carriers vs non-carriers
[20] = PLCB1 marker 100, carriers vs non-carriers
[21] = PLCB1 marker 101, carriers vs non-carriers
[22] = PLCB1 marker 102, carriers vs non-carriers
[23] = PLCB1 marker 103, carriers vs non-carriers
[24] = PLCB1 marker 104, carriers vs non-carriers
[25] = PLCB1 marker 105, carriers vs non-carriers
[26] = PLCB1 marker 106, carriers vs non-carriers
[27] = PLCB1 marker 107, carriers vs non-carriers
[28] = PLCB1 marker 108, carriers vs non-carriers
[29] = PLCB1 marker 109, carriers vs non-carriers
[30] = PLCB1 marker 110, carriers vs non-carriers
[31] = PLCB1 marker 111, carriers vs non-carriers
[32] = PLCB1 marker 112, carriers vs non-carriers
[33] = PLCB1 marker 113, carriers vs non-carriers
[34] = PLCB1 marker 114, carriers vs non-carriers
[35] = PLCB1 marker 115, carriers vs non-carriers
[36] = PLCB1 marker 116, carriers vs non-carriers
[37] = PLCB1 marker 117, carriers vs non-carriers
[38] = PLCB1 marker 118, carriers vs non-carriers
[39] = PLCB1 marker 119, carriers vs non-carriers
[40] = PLCB1 marker 120, carriers vs non-carriers
[41] = PLCB1 marker 121, carriers vs non-carriers
[42] = PLCB1 marker 122, carriers vs non-carriers
[43] = PLCB1 marker 123, carriers vs non-carriers
[44] = PLCB1 marker 124, carriers vs non-carriers
[45] = PLCB1 marker 125, carriers vs non-carriers
[46] = PLCB1 marker 126, carriers vs non-carriers
[47] = PLCB1 marker 127, carriers vs non-carriers
[48] = PLCB1 marker 128, carriers vs non-carriers
[49] = PLCB1 marker 129, carriers vs non-carriers
[50] = PLCB1 marker 130, carriers vs non-carriers

Cl.N#Cc1ccc2[nH]cc(CCCCN3CCN(c4ccc5oc(C(N)=O)cc5c4)CC3)c2c1 [Vilazodone, 5-{4-[4-(5-Cyano-3-indolyl)-butyl]-1-piperazinyl}-benzofuran-2-carboxamide hydrochloride]
Response difference (Cauc. only) [1]: −6.6 | Response difference (all ethnic.) [1]: −5.1 | Response difference (Cauc. only) [2]: −5.9 | Response difference (all ethnic.) [2]: −4.3 | Response difference (Cauc. only) [3]: −6 | Response difference (all ethnic.) [3]: −4.3 | Response difference (Cauc. only) [4]: −6 | Response difference (all ethnic.) [4]: −4.3 | Response difference (Cauc. only) [5]: −5.4 | Response difference (all ethnic.) [5]: −3.9 | Response difference (Cauc. only) [6]: −6.4 | Response difference (all ethnic.) [6]: −5.1 | Response difference (Cauc. only) [7]: −5.8 | Response difference (all ethnic.) [7]: −4.6 | Response difference (Cauc. only) [8]: −6.4 | Response difference (all ethnic.) [8]: −5.2 | Response difference (Cauc. only) [9]: −7 | Response difference (all ethnic.) [9]: −5.6 | Response difference (Cauc. only) [10]: −7 | Response difference (all ethnic.) [10]: −5.6 | Response difference (Cauc. only) [11]: −7 | Response difference (all ethnic.) [11]: −5.6 | Response difference (Cauc. only) [12]: −7 | Response difference (all ethnic.) [12]: −5.6 | Response difference (Cauc. only) [13]: −7 | Response difference (all ethnic.) [13]: −5.6 | Response difference (Cauc. only) [14]: −7 | Response difference (all ethnic.) [14]: −5.6 | Response difference (Cauc. only) [15]: −7 | Response difference (all ethnic.) [15]: −5.6 | Response difference (Cauc. only) [16]: −7.3 | Response difference (all ethnic.) [16]: −4.2 | Response difference (Cauc. only) [17]: −7.3 | Response difference (all ethnic.) [17]: −4.2 | Response difference (Cauc. only) [18]: −7.3 | Response difference (all ethnic.) [18]: −4.2 | Response difference (Cauc. only) [19]: −7.3 | Response difference (all ethnic.) [19]: −4.2 | Response difference (Cauc. only) [20]: −7.3 | Response difference (all ethnic.) [20]: −4.2 | Response difference (Cauc. only) [21]: −6 | Response difference (all ethnic.) [21]: −4.7 | Response difference (Cauc. only) [22]: −6 | Response difference (all ethnic.) [22]: −4.7 | Response difference (Cauc. only) [23]: −6.6 | Response difference (all ethnic.) [23]: −4.6 | Response difference (Cauc. only) [24]: −6.6 | Response difference (all ethnic.) [24]: −4.6 | Response difference (Cauc. only) [25]: −6.6 | Response difference (all ethnic.) [25]: −4.6 | Response difference (Cauc. only) [26]: −6.6 | Response difference (all ethnic.) [26]: −4.6 | Response difference (Cauc. only) [27]: −6.6 | Response difference (all ethnic.) [27]: −4.6 | Response difference (Cauc. only) [28]: −6.6 | Response difference (all ethnic.) [28]: −4.6 | Response difference (Cauc. only) [29]: −6.6 | Response difference (all ethnic.) [29]: −4.6 | Response difference (Cauc. only) [30]: −6.7 | Response difference (all ethnic.) [30]: −4.7 | Response difference (Cauc. only) [31]: −6.7 | Response difference (all ethnic.) [31]: −4.7 | Response difference (Cauc. only) [32]: −6.7 | Response difference (all ethnic.) [32]: −4.7 | Response difference (Cauc. only) [33]: −6.7 | Response difference (all ethnic.) [33]: −4.7 | Response difference (Cauc. only) [34]: −6.7 | Response difference (all ethnic.) [34]: −4.7 | Response difference (Cauc. only) [35]: −6.7 | Response difference (all ethnic.) [35]: −4.7 | Response difference (Cauc. only) [36]: −6.7 | Response difference (all ethnic.) [36]: −4.7 | Response difference (Cauc. only) [37]: −6.7 | Response difference (all ethnic.) [37]: −4.7 | Response difference (Cauc. only) [38]: −6.7 | Response difference (all ethnic.) [38]: −4.7 | Response difference (Cauc. only) [39]: −6.7 | Response difference (all ethnic.) [39]: −4.7 | Response difference (Cauc. only) [40]: −6.7 | Response difference (all ethnic.) [40]: −4.7 | Response difference (Cauc. only) [41]: −6.7 | Response difference (all ethnic.) [41]: −4.7 | Response difference (Cauc. only) [42]: −6.7 | Response difference (all ethnic.) [42]: −4.7 | Response difference (Cauc. only) [43]: −6.7 | Response difference (all ethnic.) [43]: −4.7 | Response difference (Cauc. only) [44]: −5.9 | Response difference (all ethnic.) [44]: −4.2 | Response difference (Cauc. only) [45]: −5.9 | Response difference (all ethnic.) [45]: −4.2 | Response difference (Cauc. only) [46]: −5.9 | Response difference (all ethnic.) [46]: −4.2 | Response difference (Cauc. only) [47]: −5.9 | Response difference (all ethnic.) [47]: −4.2 | Response difference (Cauc. only) [48]: −5.9 | Response difference (all ethnic.) [48]: −4.2 | Response difference (Cauc. only) [49]: −5.9 | Response difference (all ethnic.) [49]: −4.2 | Response difference (Cauc. only) [50]: −5.9 | Response difference (all ethnic.) [50]: −4.2
